Data taken from PubChem BioAssay AID1963851 (Molecular Pharmacology Branch, DTP, NCI, 2024).

Test system: 188146-221-R-J1-PDC complex spheroid viability
Assay: Anticancer human tumor 188146-221-R-J1-PDC patient-derived colon adenocarcinoma cell line growth inhibition [POLQ]
Details: for IC50: curve of first compound; for viability, T/C: stronger effect = lower value; active = viability on the fitted dose curve at most 10% of control; inactive = the rest
Procedure, shortened: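 Three-cell-type spheroids modelling solid tumor plus stroma served as the readout system; POL inhibitors were tested individually and in combination, concentration ranges set by clinical Cmax where known.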

[1] = second compound 0.0316 µM, first compound 0.0316 µM
[2] = second compound 0.0316 µM, first compound 0.1 µM
[3] = second compound 0.0316 µM, first compound 0.316 µM
[4] = second compound 0.0316 µM, first compound 1 µM
[5] = second compound 0.0316 µM, first compound 3.16 µM
[6] = second compound 0.0316 µM, first compound 10 µM
[7] = second compound 0.1 µM, first compound 0.0316 µM
[8] = second compound 0.1 µM, first compound 0.1 µM
[9] = second compound 0.1 µM, first compound 0.316 µM
[10] = second compound 0.1 µM, first compound 1 µM
[11] = second compound 0.1 µM, first compound 3.16 µM
[12] = second compound 0.1 µM, first compound 10 µM
[13] = second compound 0.316 µM, first compound 0.0316 µM
[14] = second compound 0.316 µM, first compound 0.1 µM
[15] = second compound 0.316 µM, first compound 0.316 µM
[16] = second compound 0.316 µM, first compound 1 µM
[17] = second compound 0.316 µM, first compound 3.16 µM
[18] = second compound 0.316 µM, first compound 10 µM
[19] = second compound 1 µM, first compound 0.0316 µM
[20] = second compound 1 µM, first compound 0.1 µM
[21] = second compound 1 µM, first compound 0.316 µM
[22] = second compound 1 µM, first compound 1 µM
[23] = second compound 1 µM, first compound 3.16 µM
[24] = second compound 1 µM, first compound 10 µM
[25] = second compound 3.16 µM, first compound 0.0316 µM
[26] = second compound 3.16 µM, first compound 0.1 µM
[27] = second compound 3.16 µM, first compound 0.316 µM
[28] = second compound 3.16 µM, first compound 1 µM
[29] = second compound 3.16 µM, first compound 3.16 µM
[30] = second compound 3.16 µM, first compound 10 µM
[31] = second compound 10 µM, first compound 0.0316 µM
[32] = second compound 10 µM, first compound 0.1 µM
[33] = second compound 10 µM, first compound 0.316 µM
[34] = second compound 10 µM, first compound 1 µM
[35] = second compound 10 µM, first compound 3.16 µM
[36] = second compound 10 µM, first compound 10 µM
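Note: spheroids exposed to compounds for seven days.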
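Throughout, for viability, T/C: 100% = DMSO vehicle control viability.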

CC1COCCN1c1cc(C2(S(C)(=N)=O)CC2)nc(-c2ccnc3[nH]ccc23)n1 (stereo unspecified) + Cc1cccc(N(C)C(=O)C2C(O)CCN2c2nc(C)cc(C(F)(F)F)c2C#N)c1
4650 nM: IC50 (second compound 0.1 µM)
3210 nM: IC50 (second compound 10 µM)
5330 nM: IC50 (second compound 0.316 µM)
4900 nM: IC50 (second compound 0.0316 µM) | IC50 (second compound 3.16 µM)
inactive: viability, T/C [1] 108% | viability, T/C [2] 92.9% | viability, T/C [3] 97.6% | viability, T/C [4] 95.7% | viability, T/C [5] 65.2% | viability, T/C [6] 25.1% | viability, T/C [7] 114% | viability, T/C [8] 98.3% | viability, T/C [9] 93.9% | viability, T/C [10] 89.1% | viability, T/C [11] 58.7% | viability, T/C [12] 27.7% | viability, T/C [13] 98.4% | viability, T/C [14] 96.9% | viability, T/C [15] 97.9% | viability, T/C [16] 90.2% | viability, T/C [17] 68.5% | viability, T/C [18] 27.8% | viability, T/C [19] 101% | viability, T/C [20] 91% | viability, T/C [21] 95.7% | viability, T/C [22] 91.4% | viability, T/C [23] 58.2% | viability, T/C [24] 28.9% | viability, T/C [25] 88.5% | viability, T/C [26] 103% | viability, T/C [27] 81.4% | viability, T/C [28] 83.8% | viability, T/C [29] 63.8% | viability, T/C [30] 27.2% | viability, T/C [31] 90% | viability, T/C [32] 78.5% | viability, T/C [33] 88.8% | viability, T/C [34] 62% | viability, T/C [35] 53.2% | viability, T/C [36] 19.4%
4360 nM: IC50 (second compound 1 µM)

Nc1ccn(C2OC(CO)C(O)C2(F)F)c(=O)n1 (stereo unspecified) + Cc1cccc(N(C)C(=O)C2C(O)CCN2c2nc(C)cc(C(F)(F)F)c2C#N)c1
< 31.6 nM: IC50 (second compound 0.0316 µM) | IC50 (second compound 0.1 µM) | IC50 (second compound 0.316 µM) | IC50 (second compound 1 µM) | IC50 (second compound 3.16 µM) | IC50 (second compound 10 µM)
inactive: viability, T/C [1] 35.5% | viability, T/C [2] 20.8% | viability, T/C [3] 14.7% | viability, T/C [4] 18.1% | viability, T/C [5] 17.1% | viability, T/C [6] 10.2% | viability, T/C [7] 41% | viability, T/C [8] 23.8% | viability, T/C [9] 15.2% | viability, T/C [10] 15.9% | viability, T/C [11] 14.9% | viability, T/C [12] 11.3% | viability, T/C [13] 31.9% | viability, T/C [14] 20.5% | viability, T/C [15] 14.2% | viability, T/C [16] 15% | viability, T/C [17] 16.9% | viability, T/C [18] 14.1% | viability, T/C [19] 28.1% | viability, T/C [20] 25.9% | viability, T/C [21] 20.2% | viability, T/C [22] 16.2% | viability, T/C [23] 14.3% | viability, T/C [24] 10.8% | viability, T/C [25] 24.6% | viability, T/C [26] 22.5% | viability, T/C [27] 15.8% | viability, T/C [28] 16.5% | viability, T/C [29] 17.8% | viability, T/C [30] 11.1% | viability, T/C [31] 31.1% | viability, T/C [32] 19.1% | viability, T/C [33] 20.3% | viability, T/C [34] 22% | viability, T/C [35] 20.5% | viability, T/C [36] 11.4%

Cn1ncnc1[C@H]1c2n[nH]c(=O)c3cc(F)cc(c23)N[C@@H]1c1ccc(F)cc1 + COC1C(OC(N)=O)C(O)C(Oc2ccc3c(O)c(NC(=O)c4ccc(O)c(CC=C(C)C)c4)c(=O)oc3c2C)OC1(C)C
inactive: viability, T/C (second compound 0.0316 µM, first compound 0.000316 µM) 109% | viability, T/C (second compound 0.0316 µM, first compound 0.001 µM) 93.7% | viability, T/C (second compound 0.0316 µM, first compound 0.00316 µM) 104% | viability, T/C (second compound 0.0316 µM, first compound 0.01 µM) 113% | viability, T/C [1] 97.9% | viability, T/C [2] 88.4% | viability, T/C (second compound 0.1 µM, first compound 0.000316 µM) 108% | viability, T/C (second compound 0.1 µM, first compound 0.001 µM) 108% | viability, T/C (second compound 0.1 µM, first compound 0.00316 µM) 108% | viability, T/C (second compound 0.1 µM, first compound 0.01 µM) 101% | viability, T/C [7] 99.5% | viability, T/C [8] 86.8% | viability, T/C (second compound 0.316 µM, first compound 0.000316 µM) 114% | viability, T/C (second compound 0.316 µM, first compound 0.001 µM) 102% | viability, T/C (second compound 0.316 µM, first compound 0.00316 µM) 98.2% | viability, T/C (second compound 0.316 µM, first compound 0.01 µM) 93.8% | viability, T/C [13] 98.8% | viability, T/C [14] 88.8% | viability, T/C (second compound 1 µM, first compound 0.000316 µM) 107% | viability, T/C (second compound 1 µM, first compound 0.001 µM) 113% | viability, T/C (second compound 1 µM, first compound 0.00316 µM) 108% | viability, T/C (second compound 1 µM, first compound 0.01 µM) 107% | viability, T/C [19] 98.2% | viability, T/C [20] 101% | viability, T/C (second compound 3.16 µM, first compound 0.000316 µM) 108% | viability, T/C (second compound 3.16 µM, first compound 0.001 µM) 103% | viability, T/C (second compound 3.16 µM, first compound 0.00316 µM) 106% | viability, T/C (second compound 3.16 µM, first compound 0.01 µM) 97.5% | viability, T/C [25] 110% | viability, T/C [26] 102% | viability, T/C (second compound 10 µM, first compound 0.000316 µM) 114% | viability, T/C (second compound 10 µM, first compound 0.001 µM) 104% | viability, T/C (second compound 10 µM, first compound 0.00316 µM) 111% | viability, T/C (second compound 10 µM, first compound 0.01 µM) 104% | viability, T/C [31] 103% | viability, T/C [32] 105%
> 100 nM: IC50 (second compound 0.0316 µM) | IC50 (second compound 0.1 µM) | IC50 (second compound 0.316 µM) | IC50 (second compound 1 µM) | IC50 (second compound 3.16 µM) | IC50 (second compound 10 µM)
